Assay results: PMC3039689, “Identification of Small Molecule Lead Compounds for Visceral Leishmaniasis Using a Novel Ex Vivo Splenic Explant Model System” (PLoS Neglected Tropical Diseases, 2011)
Where a name gives a salt, the structure may show the parent alone. Read-outs that look alike come from different tables or passages of the source.

What was measured:
HepG2 cells = assay: Cell toxicity (CC50) in the HepG2 cell line, CellTiter-Glo; type: cell-based, human
Method: (§1) After 24 hours of culture at 37°C the number of viable cells was determined by quantification of the ATP present in the cell using the CellTiter-Glo luminescent Cell Viability Assay (Promega).

[1] = molecular target: luciferase-transfected Leishmania donovani; assay: Anti-leishmanial efficacy (EC50) in the ex vivo splenic explant model; type: cell-based
Method: To establish the plate assay for drug screening, the spleens from 2 infected hamsters were aseptically removed and placed in a Petri dish containing 5 mL of Collagenase D (Roche) at 2 mg/mL of buffer (10 mM Hepes pH 7.4, 150 mM NaCl, 5 mM KCl, 1 mM MgCl2, 1.8 mM CaCl2). The spleen was infiltrated by injection with approximately 2 mL of Collagenase solution, the tissue was cut into small pieces using sharp scissors, and incubated for 20 minutes at 37°C. The cell suspension and remaining tissue fragments were gently passed through a 100 µm cell strainer (B–D) to obtain a single cell suspension, which was washed twice by centrifugation (500 g for 7 min at 4°C) and re-suspended in culture medium composed of DMEM (Gibco), 5% FBS, 1 mM Sodium pyruvate (Gibco), 1X MEM amino acids solution (Sigma), 0.02% v/v/EDTA, 10 mM HEPES buffer (Cellgro) and 100 IU/mL Penicillin/100 […] Streptomycin solution (Cellgro).
The anti-leishmanial efficacy of the compounds was determined using the splenic explant model in a 96-well plate format. […] Because variation in the parasite burden between different explant cultures was expected, the concentration of cells used in each experiment was adjusted to give approximately 100 counts by luminometry (equivalent to ∼240,000 parasites). The number of surviving parasites was determined by luminometry as described above.

[2] = Cell toxicity (CC50) in the HepG2 cell line, CellTiter-Glo; type: cell-based, human; details: human
Method: as §1

[3] = HepG2 cell line, 24 h, ATP luminescence, compound from screened library, read-out: HepG2 CC50 Mean
[4] = ex vivo splenic explant, 48 h, luminometry, at least two experiments, compound from screened library, read-out: Ex vivo model EC50 Mean
[5] = Leishmania donovani, 48 h, ex vivo splenic explant, 48 h, luminometry, at least two experiments, compound from screened library, read-out: Ex vivo model EC50 Mean

Compound	CC50 (HepG2 cells; [3])	EC50 [1, 4]	further results
7-(2-(6-Ethoxy-1-methyl-1.lambda.~5~-quinolin-2-yl)vinyl)-5-methyl-8-quinolinol; Quinolinium, {6-ethoxy-2-[2-(8-hydroxy-5-methyl-7-quinolyl)vinyl]-1-methyl-} iodide	46 µM	5.7 µM	–
OC(c1cc(-c2ccc(Cl)cc2)nc2ccccc12)C1CCCCN1 (centres unmarked) [2-(4-chlorophenyl)quinolin-4-yl]-(2-piperidyl)methanol]	38.4 µM	6.7 µM	–
c1ccc(-c2ccc(-c3ccc(C4=NCCN4)cc3)o2)cc1 [2-[4-(5-phenylfuran-2-yl)phenyl]-4,5-dihydro-1H-imidazole chloride]	–	7.5 µM	CC50 (HepG2 cells): 42.9 µM
CCC1=C(CC2NCCc3cc(OC)c(OC)cc32)CC2c3ccccc3CCN2C1 (centres unmarked) [2-[(6,7-dimethoxy-1,2,3,4-tetrahydroisoquinolin-1-yl)methyl]-3-ethyl-4,6,7,11b-tetrahydro-1H-pyrido[2,1-a]isoquinoline]	76.2 µM	8.8 µM	–
OC(c1cc(-c2ccccc2)nc2c1ccc1ccccc12)C1CCCCN1 (centres unmarked) [2-phenylbenzo[h]quinolin-4-yl)(2-piperidinyl)me]	28.7 µM	5 µM	–
CCN(CC)CC(O)c1ccc2ccc3ccccc3c2c1 (stereo not drawn) [3-Phenanthrenemethanol, α-[ (diethylamino)methyl]-, hydrochloride]	54.2 µM	8.9 µM	–
O=[As](O)(O)c1ccc(Cc2ccc([As](=O)(O)O)cc2)cc1 [4-[(4-arsonophenyl)methyl]phenyl]arsonic acid]	34.5 µM	6.9 µM	–
CCCCCCc1ccc(O)cc1O.Nc1c2ccccc2nc2ccccc12 [Acrisorcin]	50.9 µM	8 µM	–
CC1=CC(C2/C(=N/O)C=C(C)CC2(C)C)C(O)C(C)(C)C1 (centres unmarked) [Cristox Oxime]	140 µM	10.9 µM	–
CC(C)c1ccc2c(c1)CC[C@H]1[C@](C)(CN)CCC[C@]21C [Dehydroabietylamine]	–	5.8 µM	CC50 (HepG2 cells): 32.9 µM
CCN(CC)COC(=S)S [Diethylaminomethoxymethanedithioic acid]	83.7 µM	3.7 µM	–
CC(C)=CC(=O)O[C@H]1[C@H]2[C@H](OC(=O)[C@H]2C)[C@H](O)[C@@H](C)[C@@H]2C=CC(=O)[C@]21C [Fastigilin B]	44.8 µM	8.9 µM	–
CC[C@@H](C(=O)[C@@H](C)[C@@H](O)[C@H](C)CCc1ccc(C)c(O)c1C(=O)O)[C@H]1O[C@](CC)([C@H]2CC[C@](O)(CC)[C@H](C)O2)C[C@@H]1C [Lasalocid Sodium]	45.8 µM	8.9 µM	–
c1ccc2c(c1)Sc1ccccc1N2CC1CN2CCC1CC2 (centres unmarked) [Mequitazine,10-(3-Quinuclidinylmethyl)phenothiazine]	50.3 µM	8.5 µM	–
Cc1cc(C(C)(C)CC(C)(C)C)ccc1OCCOCC[N+](C)(C)Cc1ccccc1 [Methylbenzethonium Chloride]	–	7.1 µM	CC50 (HepG2 cells): 53.2 µM; EC50 ([1]; 50% reduction in parasite counts in the ex vivo model, read-out: EC50 Mean (Table S2)): 7.06 µM
CO[C@@H]1C[C@@H](C[C@H]2CC[C@H](C)[C@H]([C@@H](C)C(=O)O)O2)O[C@]2(O[C@](C)([C@H]3CC[C@@](C)([C@@H]4O[C@@H]([C@H]5O[C@@](O)(CO)[C@H](C)C[C@@H]5C)C[C@@H]4C)O3)C[C@H]2C)[C@@H]1C [Nigericin, monosodium salt]	–	–	CC50 at 24 h [2]: 34.3 µM; EC50 [1, 5]: 3.1 µM; EC50 ([1]; Leishmania donovani, 50% reduction in parasite counts in the ex vivo model, read-out: EC50 Mean (Table S2)): 3.13 µM
C[C@@H]1C[C@H]2CC[C@H](O2)[C@H](C)C(=O)O[C@@H](C)C[C@@H]2CC[C@@H](O2)[C@@H](C)C(=O)O[C@H](C)C[C@H]2CC[C@H](O2)[C@H](C)C(=O)O[C@@H](C)C[C@@H]2CC[C@@H](O2)[C@@H](C)C(=O)O1 [Nonactin]	–	–	CC50 [2]: 23.7 µM; EC50 ([1]; Leishmania donovani, ex vivo splenic explant, 48 h, luminometry, at least two experiments, compound from screened library, read-out: Ex vivo model EC50 Mean): 0.1 µM
CNCCC=C1c2ccccc2CCc2ccccc21 [Nortriptyline Hydrochloride]	–	–	CC50 [2]: 52.6 µM; EC50 [1, 5]: 7.8 µM
